Read-outs that look alike come from different tables or passages of the source. Positions of bridges follow the written chain, without caps; N, C: chain ends. Non-standard residues stand in square brackets, D forms with d. Residues, ends and D or L forms follow the SMILES beside them. *: point of attachment. Biotin = O=C1N[C@H]2[C@H](CS[C@H]2CCCCC(=O)*)N1; Abu = CC[C@H](N)C(=O)O; Ahx = NCCCCCC(=O)O
Key:
Assay in all cases: cell-based
hNav1.7 [1] = molecular target: T1, hNav1.7 (Homo sapiens, UniProt Q15858)
T1 sequence (Q15858 whole entry, looked up): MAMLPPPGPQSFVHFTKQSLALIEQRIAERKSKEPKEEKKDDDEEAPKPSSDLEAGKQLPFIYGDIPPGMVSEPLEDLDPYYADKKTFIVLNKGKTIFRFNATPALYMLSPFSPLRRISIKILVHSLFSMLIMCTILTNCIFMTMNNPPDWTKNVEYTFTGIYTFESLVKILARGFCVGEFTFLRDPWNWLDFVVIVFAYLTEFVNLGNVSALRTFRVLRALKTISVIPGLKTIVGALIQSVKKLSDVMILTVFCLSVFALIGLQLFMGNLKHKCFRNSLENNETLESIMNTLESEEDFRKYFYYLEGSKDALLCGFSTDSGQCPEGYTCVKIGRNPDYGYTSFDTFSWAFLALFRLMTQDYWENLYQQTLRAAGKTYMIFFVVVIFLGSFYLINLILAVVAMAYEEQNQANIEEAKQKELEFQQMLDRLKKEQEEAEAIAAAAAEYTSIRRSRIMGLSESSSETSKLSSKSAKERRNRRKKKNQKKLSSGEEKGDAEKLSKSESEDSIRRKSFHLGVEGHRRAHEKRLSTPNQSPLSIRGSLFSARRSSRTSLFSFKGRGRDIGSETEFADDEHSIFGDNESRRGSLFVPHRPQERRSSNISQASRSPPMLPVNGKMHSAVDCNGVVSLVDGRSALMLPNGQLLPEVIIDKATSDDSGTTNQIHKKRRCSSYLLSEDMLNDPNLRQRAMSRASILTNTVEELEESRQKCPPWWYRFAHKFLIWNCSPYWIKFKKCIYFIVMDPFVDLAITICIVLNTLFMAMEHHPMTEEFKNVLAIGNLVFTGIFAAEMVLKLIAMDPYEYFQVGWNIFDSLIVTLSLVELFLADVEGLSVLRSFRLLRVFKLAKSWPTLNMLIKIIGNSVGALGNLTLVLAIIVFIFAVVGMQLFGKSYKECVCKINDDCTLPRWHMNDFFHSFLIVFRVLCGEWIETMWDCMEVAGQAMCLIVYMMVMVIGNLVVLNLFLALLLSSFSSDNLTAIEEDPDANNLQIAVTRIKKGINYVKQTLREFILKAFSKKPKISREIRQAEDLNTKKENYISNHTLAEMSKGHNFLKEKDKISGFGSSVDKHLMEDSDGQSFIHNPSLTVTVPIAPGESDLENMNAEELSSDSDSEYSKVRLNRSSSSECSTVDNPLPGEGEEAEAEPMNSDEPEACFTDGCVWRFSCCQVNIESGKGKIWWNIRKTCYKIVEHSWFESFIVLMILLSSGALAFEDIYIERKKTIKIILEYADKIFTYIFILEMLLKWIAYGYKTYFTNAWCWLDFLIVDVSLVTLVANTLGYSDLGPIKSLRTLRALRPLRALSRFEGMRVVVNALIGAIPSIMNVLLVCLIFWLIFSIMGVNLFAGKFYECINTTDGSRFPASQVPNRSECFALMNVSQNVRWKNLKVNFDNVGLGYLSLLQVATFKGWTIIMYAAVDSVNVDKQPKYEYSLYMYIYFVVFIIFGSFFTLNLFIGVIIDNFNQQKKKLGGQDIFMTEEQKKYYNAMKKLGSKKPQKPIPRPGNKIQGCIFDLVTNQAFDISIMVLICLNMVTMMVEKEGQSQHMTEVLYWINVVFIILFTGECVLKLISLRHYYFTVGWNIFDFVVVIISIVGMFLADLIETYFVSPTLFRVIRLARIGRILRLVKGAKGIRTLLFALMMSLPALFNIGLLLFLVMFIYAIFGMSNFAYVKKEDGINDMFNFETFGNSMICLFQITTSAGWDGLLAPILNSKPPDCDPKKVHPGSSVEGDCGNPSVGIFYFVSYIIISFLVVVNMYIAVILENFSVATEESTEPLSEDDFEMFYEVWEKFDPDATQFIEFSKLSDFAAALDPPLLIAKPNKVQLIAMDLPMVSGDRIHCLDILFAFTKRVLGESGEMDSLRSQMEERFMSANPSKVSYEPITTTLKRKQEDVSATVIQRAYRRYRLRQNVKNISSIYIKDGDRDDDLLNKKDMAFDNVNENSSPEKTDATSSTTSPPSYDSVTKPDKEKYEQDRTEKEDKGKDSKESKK

hNav1.7 [2] = molecular target: T1, hNav1.7; type: cell-based; details: IonWorks Quattro, use-dependent block, hNav1.7; read-out: IWQ Use Nav1.7
hNav1.3 = hNav1.3 (Homo sapiens, UniProt Q9NY46); details: IonWorks Quattro, use-dependent block, hNav1.3; read-out: IWQ Use Nav1.3
hNav1.5 = hNav1.5 (Homo sapiens, UniProt Q14524); details: IonWorks Quattro, use-dependent block, hNav1.5; read-out: IWQ Use Nav1.5
hNav1.5, sequence (Q14524 whole entry, looked up): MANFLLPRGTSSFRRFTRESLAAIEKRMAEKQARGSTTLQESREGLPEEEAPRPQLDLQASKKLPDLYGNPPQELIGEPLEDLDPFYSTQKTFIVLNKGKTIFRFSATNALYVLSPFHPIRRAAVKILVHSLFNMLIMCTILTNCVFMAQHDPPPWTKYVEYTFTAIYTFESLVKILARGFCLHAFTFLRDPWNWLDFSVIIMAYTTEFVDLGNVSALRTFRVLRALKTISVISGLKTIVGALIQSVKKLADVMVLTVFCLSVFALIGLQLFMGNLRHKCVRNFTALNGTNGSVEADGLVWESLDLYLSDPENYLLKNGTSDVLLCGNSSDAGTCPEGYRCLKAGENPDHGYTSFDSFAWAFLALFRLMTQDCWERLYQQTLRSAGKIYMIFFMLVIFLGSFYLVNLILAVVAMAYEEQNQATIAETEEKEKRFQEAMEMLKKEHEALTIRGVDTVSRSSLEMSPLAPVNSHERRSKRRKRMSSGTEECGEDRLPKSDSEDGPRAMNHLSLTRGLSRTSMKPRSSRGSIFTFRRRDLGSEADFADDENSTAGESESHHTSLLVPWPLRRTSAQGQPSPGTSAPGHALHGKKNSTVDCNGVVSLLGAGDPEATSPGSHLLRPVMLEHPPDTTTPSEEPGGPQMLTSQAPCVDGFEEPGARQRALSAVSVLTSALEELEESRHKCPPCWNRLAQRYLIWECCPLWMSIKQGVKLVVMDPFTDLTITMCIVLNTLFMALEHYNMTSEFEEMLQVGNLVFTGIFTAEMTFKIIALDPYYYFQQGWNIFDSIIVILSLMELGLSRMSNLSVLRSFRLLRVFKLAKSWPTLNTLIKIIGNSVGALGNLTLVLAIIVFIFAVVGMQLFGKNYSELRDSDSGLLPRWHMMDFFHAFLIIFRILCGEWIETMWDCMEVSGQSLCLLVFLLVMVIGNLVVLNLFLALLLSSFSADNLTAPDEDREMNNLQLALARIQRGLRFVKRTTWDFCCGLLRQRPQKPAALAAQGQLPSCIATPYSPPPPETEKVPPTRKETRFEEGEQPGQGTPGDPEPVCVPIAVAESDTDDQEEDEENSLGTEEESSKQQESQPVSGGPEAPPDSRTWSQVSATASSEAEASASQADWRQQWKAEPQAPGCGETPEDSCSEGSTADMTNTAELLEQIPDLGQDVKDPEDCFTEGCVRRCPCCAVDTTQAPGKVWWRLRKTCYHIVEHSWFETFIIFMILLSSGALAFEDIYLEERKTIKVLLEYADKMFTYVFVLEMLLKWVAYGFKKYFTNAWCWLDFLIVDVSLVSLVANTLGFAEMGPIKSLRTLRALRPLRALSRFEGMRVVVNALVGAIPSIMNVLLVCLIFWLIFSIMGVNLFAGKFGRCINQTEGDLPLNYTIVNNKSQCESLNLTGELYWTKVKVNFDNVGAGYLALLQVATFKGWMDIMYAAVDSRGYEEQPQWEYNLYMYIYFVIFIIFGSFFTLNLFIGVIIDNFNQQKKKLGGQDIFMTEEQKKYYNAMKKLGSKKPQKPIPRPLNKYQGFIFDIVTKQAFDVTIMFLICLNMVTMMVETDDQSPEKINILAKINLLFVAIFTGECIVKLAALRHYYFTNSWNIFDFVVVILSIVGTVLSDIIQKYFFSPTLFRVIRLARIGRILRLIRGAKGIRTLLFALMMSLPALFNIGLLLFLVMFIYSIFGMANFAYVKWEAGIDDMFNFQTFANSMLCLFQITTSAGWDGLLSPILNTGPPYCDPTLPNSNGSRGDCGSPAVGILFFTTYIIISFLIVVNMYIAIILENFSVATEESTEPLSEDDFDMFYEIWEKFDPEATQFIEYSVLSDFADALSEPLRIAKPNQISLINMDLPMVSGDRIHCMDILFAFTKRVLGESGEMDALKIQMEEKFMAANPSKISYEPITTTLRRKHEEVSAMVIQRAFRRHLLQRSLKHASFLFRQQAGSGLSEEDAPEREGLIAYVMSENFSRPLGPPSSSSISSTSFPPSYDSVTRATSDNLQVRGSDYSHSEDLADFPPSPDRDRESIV

Row | SMILES | Nav1.4/Nav1.7 Use (hNav1.7 [1]) | Nav1.5/Nav1.7 Use (hNav1.7 [1]) | IC50 (hNav1.7 [1]; read-out: Nav1.7 Use IC50) [µM] | IC50 (hNav1.7 [2]) [µM] | IC50 (hNav1.3) [µM] | IC50 (hNav1.5) [µM]
1 | CC[C@@H]1NC(=O)CNC(=O)[C@H](CC(C)C)NC(=O)[C@@H](NC(=O)[C@H](CC(=O)O)NC(=O)CCCCCNC(=O)CCCC[C@@H]2SC[C@@H]3NC(=O)N[C@@H]32)CSSC[C@@H]2NC(=O)[C@@H]3CSSC[C@@H](C(=O)N[C@@H](CCCCN)C(=O)N[C@@H](Cc4ccc(O)cc4)C(=O)N[C@H](C(=O)N[C@@H](Cc4ccccc4)C(N)=O)C(C)C)NC(=O)[C@H](Cc4c[nH]c5ccccc45)NC(=O)[C@H](CCCNC(=N)N)NC(=O)[C@H](Cc4c[nH]cn4)NC(=O)[C@H]([C@@H](C)O)NC(=O)[C@H](CCCNC(=N)N)NC(=O)[C@H](CO)NC(=O)[C@H](CSSC[C@H](NC(=O)[C@H](CCCCN)NC(=O)[C@H](CCCNC(=N)N)NC(=O)[C@H](CC(C)C)NC1=O)C(=O)N[C@@H]([C@@H](C)CC)C(=O)N1CCC[C@H]1C(=O)N[C@@H](CC(=O)O)C(=O)N[C@@H](CC)C(=O)N[C@@H](CC(=O)O)C(=O)N[C@@H](CCCCN)C(=O)N3)NC(=O)[C@H](C(C)C)NC(=O)[C@H](CC(C)C)NC(=O)[C@H](CC(N)=O)NC(=O)[C@@H]1CCCN1C(=O)[C@H](CCCNC(=N)N)NC2=O ({Biotin-Ahx}-DCLG[Abu]LRKCIPD[Abu]DKCCRPNLVCSRTHRWCKYVF-NH2; disulfide 2-17, 9-23, 16-30) | 2482 | >909 |  |  |  | 
2 | CC[C@H](C)[C@@H]1NC(=O)[C@@H]2CSSC[C@@H]3NC(=O)[C@H](C(C)C)NC(=O)[C@H](CC(C)C)NC(=O)[C@H](CC(N)=O)NC(=O)[C@@H]4CCCN4C(=O)[C@H](CCCNC(=N)N)NC(=O)[C@H](CSSC[C@H](NC(=O)[C@@H](N)CC(=O)O)C(=O)N[C@@H](CC(C)C)C(=O)N[C@@H](CCCCN)C(=O)N[C@@H](Cc4ccccc4)C(=O)N[C@@H](CCSC)C(=O)N[C@@H](CCCNC(=N)N)C(=O)N[C@@H](CCCCN)C(=O)N2)NC(=O)[C@H](CSSC[C@@H](C(=O)N[C@@H](CCCCN)C(=O)N[C@@H](Cc2ccc(O)cc2)C(=O)N[C@H](C(=O)N[C@@H](Cc2ccccc2)C(N)=O)C(C)C)NC(=O)[C@H](Cc2c[nH]c4ccccc24)NC(=O)[C@H](CCCCN)NC(=O)[C@H](Cc2c[nH]cn2)NC(=O)[C@H]([C@@H](C)O)NC(=O)[C@H](CCCNC(=N)N)NC(=O)[C@H](CO)NC3=O)NC(=O)[C@H](CCCCN)NC(=O)[C@H](CC(=O)O)NC(=O)[C@H](CC(N)=O)NC(=O)[C@H](CC(=O)O)NC(=O)[C@@H]2CCCN2C1=O [SEQ ID NO: 39] (H-DCLKFMRKCIPDNDKCCRPNLVCSRTHKWCKYVF-NH2; disulfide 2-17, 9-23, 16-30) |  |  | 0.006 |  |  | 
3 | CC[C@H](C)[C@@H]1NC(=O)[C@@H]2CSSC[C@@H]3NC(=O)[C@H](C(C)C)NC(=O)[C@H](CC(C)C)NC(=O)[C@H](CC(N)=O)NC(=O)[C@@H]4CCCN4C(=O)[C@H](CCCNC(=N)N)NC(=O)[C@H](CSSC[C@H](NC(=O)[C@@H](N)CC(=O)O)C(=O)N[C@@H](CC(C)C)C(=O)NCC(=O)N[C@@H](C)C(=O)N[C@@H](CC(C)C)C(=O)N[C@@H](CCCNC(=N)N)C(=O)N[C@@H](CCCCN)C(=O)N2)NC(=O)[C@H](CSSC[C@@H](C(=O)N[C@@H](CCCCN)C(=O)N[C@@H](Cc2ccc(O)cc2)C(=O)N[C@H](C(=O)N[C@@H](Cc2ccccc2)C(=O)O)C(C)C)NC(=O)[C@H](Cc2c[nH]c4ccccc24)NC(=O)[C@H](CCCNC(=N)N)NC(=O)[C@H](Cc2c[nH]cn2)NC(=O)[C@H]([C@@H](C)O)NC(=O)[C@H](CCCNC(=N)N)NC(=O)[C@H](CO)NC3=O)NC(=O)[C@H](CCCCN)NC(=O)[C@H](CC(=O)O)NC(=O)[C@H](CCCNC(=N)N)NC(=O)[C@H](CC(=O)O)NC(=O)[C@@H]2CCCN2C1=O [compound 870] (H-DCLGALRKCIPDRDKCCRPNLVCSRTHRWCKYVF-OH; disulfide 2-17, 9-23, 16-30) |  |  |  | > 5 | 1.4 | > 5
4 | CC[C@H](C)[C@@H]1NC(=O)[C@@H]2CSSC[C@@H]3NC(=O)[C@H](C(C)C)NC(=O)[C@H](CC(C)C)NC(=O)[C@H](CC(N)=O)NC(=O)[C@@H]4CCCN4C(=O)[C@H](CCCNC(=N)N)NC(=O)[C@H](CSSC[C@H](NC(=O)[C@@H](N)CC(=O)O)C(=O)N[C@@H](CC(C)C)C(=O)NCC(=O)N[C@@H](C)C(=O)N[C@@H](CC(C)C)C(=O)N[C@@H](CCCNC(=N)N)C(=O)N[C@@H](CCCCN)C(=O)N2)NC(=O)[C@H](CSSC[C@@H](C(=O)N[C@@H](CCCCN)C(=O)N[C@@H](Cc2ccc(O)cc2)C(=O)N[C@H](C(=O)N[C@@H](Cc2ccccc2)C(=O)O)C(C)C)NC(=O)[C@H](Cc2c[nH]c4ccccc24)NC(=O)[C@H](CCCNC(=N)N)NC(=O)[C@H](Cc2c[nH]cn2)NC(=O)[C@H]([C@@H](C)O)NC(=O)[C@H](CCCNC(=N)N)NC(=O)[C@H](CO)NC3=O)NC(=O)[C@H](CCCCN)NC(=O)[C@H](CC(=O)O)NC(=O)[C@H](CO)NC(=O)[C@H](CC(=O)O)NC(=O)[C@@H]2CCCN2C1=O [compound 871] (H-DCLGALRKCIPDSDKCCRPNLVCSRTHRWCKYVF-OH; disulfide 2-17, 9-23, 16-30) |  |  |  | > 5 | > 5 | > 5
5 | CC[C@H](C)[C@@H]1NC(=O)[C@@H]2CSSC[C@@H]3NC(=O)[C@H](C(C)C)NC(=O)[C@H](CC(C)C)NC(=O)[C@H](CC(N)=O)NC(=O)[C@@H]4CCCN4C(=O)[C@H](CCCNC(=N)N)NC(=O)[C@H](CSSC[C@H](NC(=O)[C@@H](N)CC(=O)O)C(=O)N[C@@H](CC(C)C)C(=O)NCC(=O)N[C@@H](C)C(=O)N[C@@H](CC(C)C)C(=O)N[C@@H](CCCNC(=N)N)C(=O)N[C@@H](CCCCN)C(=O)N2)NC(=O)[C@H](CSSC[C@@H](C(=O)N[C@@H](CCCCN)C(=O)N[C@@H](Cc2ccc(O)cc2)C(=O)N[C@H](C(=O)N[C@@H](Cc2ccccc2)C(=O)O)C(C)C)NC(=O)[C@H](Cc2c[nH]c4ccccc24)NC(=O)[C@H](CCCNC(=N)N)NC(=O)[C@H](Cc2c[nH]cn2)NC(=O)[C@H]([C@@H](C)O)NC(=O)[C@H](CCCNC(=N)N)NC(=O)[C@H](CO)NC3=O)NC(=O)[C@H](CCCCN)NC(=O)[C@H](CC(=O)O)NC(=O)[C@H](C(C)C)NC(=O)[C@H](CC(=O)O)NC(=O)[C@@H]2CCCN2C1=O [compound 872] (H-DCLGALRKCIPDVDKCCRPNLVCSRTHRWCKYVF-OH; disulfide 2-17, 9-23, 16-30) |  |  |  | > 5 | > 5 | > 5
6 | CC[C@H](C)[C@@H]1NC(=O)[C@@H]2CSSC[C@@H]3NC(=O)[C@H](C(C)C)NC(=O)[C@H](CC(C)C)NC(=O)[C@H](CC(N)=O)NC(=O)[C@@H]4CCCN4C(=O)[C@H](CCCNC(=N)N)NC(=O)[C@H](CSSC[C@H](NC(=O)[C@@H](N)CC(=O)O)C(=O)N[C@@H](CC(C)C)C(=O)NCC(=O)N[C@@H](C)C(=O)N[C@@H](CC(C)C)C(=O)N[C@@H](CCCNC(=N)N)C(=O)N[C@@H](CCCCN)C(=O)N2)NC(=O)[C@H](CSSC[C@@H](C(=O)N[C@@H](CCCCN)C(=O)N[C@@H](Cc2ccc(O)cc2)C(=O)N[C@H](C(=O)N[C@@H](Cc2ccccc2)C(=O)O)C(C)C)NC(=O)[C@H](Cc2c[nH]c4ccccc24)NC(=O)[C@H](CCCNC(=N)N)NC(=O)[C@H](Cc2c[nH]cn2)NC(=O)[C@H]([C@@H](C)O)NC(=O)[C@H](CCCNC(=N)N)NC(=O)[C@H](CO)NC3=O)NC(=O)[C@H](CCCCN)NC(=O)[C@H](CC(=O)O)NC(=O)[C@H](Cc2ccc(O)cc2)NC(=O)[C@H](CC(=O)O)NC(=O)[C@@H]2CCCN2C1=O [compound 873] (H-DCLGALRKCIPDYDKCCRPNLVCSRTHRWCKYVF-OH; disulfide 2-17, 9-23, 16-30) |  |  |  | 4.8 | > 5 | > 5

— patent US9340590B2 (priority 2011, dated 2016)
